The results in this text go back to PMC3873466 (PLoS ONE, 2013).

What is called Ki is a dissociation constant, usually derived from enzyme kinetics or from competition with a known ligand. The low end stands for higher affinity, the high end for lower affinity.

Assay [1] has as its target E. coli GyrB (full length) (Escherichia coli, UniProt P0AES6). Put plainly: biochemical.
Assay [2] addresses F. tularensis ParE (full length) (Francisella tularensis, UniProt A0A0J9WZF0). Kind of assay: biochemical.

F. tularensis ParE (full length), sequence (A0A0J9WZF0 whole entry, looked up): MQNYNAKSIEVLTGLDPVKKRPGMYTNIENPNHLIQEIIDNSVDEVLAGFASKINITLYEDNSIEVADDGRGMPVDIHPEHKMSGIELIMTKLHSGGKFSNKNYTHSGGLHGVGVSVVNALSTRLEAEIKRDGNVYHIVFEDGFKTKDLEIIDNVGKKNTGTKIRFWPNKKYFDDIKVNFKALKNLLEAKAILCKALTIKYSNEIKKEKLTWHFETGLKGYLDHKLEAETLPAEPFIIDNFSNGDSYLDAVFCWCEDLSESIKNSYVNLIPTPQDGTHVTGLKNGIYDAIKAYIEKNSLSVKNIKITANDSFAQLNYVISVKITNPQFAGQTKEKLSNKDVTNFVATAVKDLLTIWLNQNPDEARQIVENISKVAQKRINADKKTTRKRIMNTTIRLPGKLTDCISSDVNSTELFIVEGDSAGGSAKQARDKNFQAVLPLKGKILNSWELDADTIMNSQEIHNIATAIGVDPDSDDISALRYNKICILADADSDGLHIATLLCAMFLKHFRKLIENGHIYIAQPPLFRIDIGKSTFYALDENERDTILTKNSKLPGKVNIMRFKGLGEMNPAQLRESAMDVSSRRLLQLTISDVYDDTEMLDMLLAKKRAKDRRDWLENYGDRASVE

Regarding `CNc1cc(F)cc2c1[nH]c1nc(Oc3cnc(C)nc3)nc(N3C[C@@H]4[C@H](N)C[C@]4(C)C3)c12` [C4, 4-((1S,5R,6R)-6-amino-1-methyl-3-azabicyclo[3.2.0]heptan-3-yl)-6-fluoro-N-methyl-2-((2-methylpyrimidin-5-yl)oxy)-9H-pyrimido[4,5-b]indol-8-amine], the figures for the Ki in assay [1] and in assay [2] were 300 pM and 800 pM, respectively.

For `CNc1cc(F)cc2c1[nH]c1nc(Oc3cnc(C)nc3)nc(N3C[C@H]4CCN[C@H]4C3)c12` [C3, 6-fluoro-4-((3aR,6aR)-hexahydropyrrolo[3,4-b]pyrrol-5(1H)-yl)-N-methyl-2-((2-methylpyrimidin-5-yl)oxy)-9H-pyrimido[4,5-b]indol-8-amine], the Ki in assay [2] is less than 400 pM.
